Data set [1] concerns DU-145. Description: Antimetastatic activity in human DU145 cells assessed as increase of E-cadherin expression at 25 to 100 uM by Western blotting. The class given is functional, cell-based.
Data set [2] has as its system DU-145. Description: Antimetastatic activity in human DU145 cells assessed as increase of E-cadherin expression at 100 uM after 24 hrs by Western blotting in presence of TGF-beta. The class given is functional, cell-based.
Data set [3] has as its system DU-145. Description: Antimetastatic activity in human DU145 cells assessed as decrease of vimentin expression at 25 to 100 uM by Western blotting. The class given is functional, cell-based.
The subject of data set [4] is DU-145. As to the kind of experiment: Antiinvasive activity in human DU145 cells assessed as reduction of number of invaded cells through matrigel at 25 to 100 uM after 8 hrs by Boyden chamber invasion assay. The class given is functional, cell-based.
Data set [5] has as its system DU-145. Description: Antimetastatic activity in human DU145 cells assessed as increase of E-cadherin mRNA expression at 25 to 100 uM by RT-PCR analysis. The class given is functional, cell-based.
In data set [6] the test system is DU-145. Description: Antimetastatic activity in human DU145 cells assessed as reduction of twist expression at 100 uM after 24 hrs by Western blotting in presence of TGF-beta. The class given is functional, cell-based.
In data set [7] the test system is DU-145. Description: Antimigratory activity in human DU145 cells at 100 uM by wound-healing assay. The class given is functional, cell-based.
In data set [8] the test system is DU-145. Description: Antimetastatic activity in human DU145 cells assessed as decrease of snail mRNA expression at 25 to 100 uM by RT-PCR analysis. The class given is functional, cell-based.
Data set [9] deals with DU-145. As to the kind of experiment: Antimetastatic activity in human DU145 cells assessed as increase of E-cadherin expression at 100 uM after 24 hrs by immunofluorescence analysis in presence of TGF-beta. The class given is functional, cell-based.
Data set [10] relates to DU-145. As to the kind of experiment: Antimetastatic activity in MMP9 siRNA transfected human DU145 cells assessed as increase of vimentin expression at 25 to 100 uM by Western blotting. The class given is functional, cell-based.
Data set [11] deals with Matrix metalloproteinase-9 (Homo sapiens) (UniProt P14780). As to the kind of experiment: Inhibition of MMP9 in human DU145 cells after 24 hrs by SDS-PAGE gelatin zymography assay. The class given is cell-based. As to conditions: DU-145.
For data set [12], the system named is DU-145. As to the kind of experiment: Antiinvasive activity in human DU145 cells assessed as reduction of number of invaded cells through matrigel at 100 uM after 8 hrs by Boyden chamber invasion assay in presence of TGF-beta. The class given is functional, cell-based.
For data set [13], the system named is DU-145. As to the kind of experiment: Antimetastatic activity in human DU145 cells assessed as decrease of twist mRNA expression at 25 to 100 uM by RT-PCR analysis. The class given is functional, cell-based.
In data set [14] the test system is DU-145. Description: Inhibition of cell adhesion in human DU145 cells in vitronectin-coated plates at 25 to 100 uM. The class given is functional, cell-based.
Data set [15] deals with DU-145. Description: Antimetastatic activity in MMP9 siRNA transfected human DU145 cells assessed as increase of E-cadherin expression at 25 to 100 uM by Western blotting. The class given is functional, cell-based.
The subject of data set [16] is DU-145. Description: Antimetastatic activity in human DU145 cells assessed as decrease of PI3K/Akt expression by Western blotting. The class given is functional, cell-based.
For data set [17], the system named is DU-145. As to the kind of experiment: Antimetastatic activity in human DU145 cells assessed as decrease of MMP9 expression at 100 uM in presence of TGF-beta. The class given is functional, cell-based.
Data set [18] relates to DU-145. Description: Antimetastatic activity in human DU145 cells assessed as decrease of vimentin mRNA expression at 25 to 100 uM by RT-PCR analysis. The class given is functional, cell-based.
In data set [19] the test system is DU-145. As to the kind of experiment: Antimetastatic activity in human DU145 cells assessed as decrease of MMP9 mRNA expression at 25 to 100 uM by RT-PCR analysis. The class given is functional, cell-based.
Data set [20] relates to DU-145. As to the kind of experiment: Antimetastatic activity in human DU145 cells assessed as decrease of twist expression at 25 to 100 uM by Western blotting. The class given is functional, cell-based.
The subject of data set [21] is DU-145. Description: Cytotoxicity against human DU145 cells assessed as cell viability up to 200 uM after 24 hrs by MTT assay. The class given is cell-based. As to conditions: du-145, 24 h.
The test system of data set [22] is DU-145. Description: Antimetastatic activity in human DU145 cells assessed as reduction of vimentin expression at 100 uM after 24 hrs by Western blotting in presence of TGF-beta. The class given is functional, cell-based.

The source made the active and inactive calls. The rule behind the calls is not given here.

Chain of Matrix metalloproteinase-9 (Homo sapiens) (P14780 whole entry): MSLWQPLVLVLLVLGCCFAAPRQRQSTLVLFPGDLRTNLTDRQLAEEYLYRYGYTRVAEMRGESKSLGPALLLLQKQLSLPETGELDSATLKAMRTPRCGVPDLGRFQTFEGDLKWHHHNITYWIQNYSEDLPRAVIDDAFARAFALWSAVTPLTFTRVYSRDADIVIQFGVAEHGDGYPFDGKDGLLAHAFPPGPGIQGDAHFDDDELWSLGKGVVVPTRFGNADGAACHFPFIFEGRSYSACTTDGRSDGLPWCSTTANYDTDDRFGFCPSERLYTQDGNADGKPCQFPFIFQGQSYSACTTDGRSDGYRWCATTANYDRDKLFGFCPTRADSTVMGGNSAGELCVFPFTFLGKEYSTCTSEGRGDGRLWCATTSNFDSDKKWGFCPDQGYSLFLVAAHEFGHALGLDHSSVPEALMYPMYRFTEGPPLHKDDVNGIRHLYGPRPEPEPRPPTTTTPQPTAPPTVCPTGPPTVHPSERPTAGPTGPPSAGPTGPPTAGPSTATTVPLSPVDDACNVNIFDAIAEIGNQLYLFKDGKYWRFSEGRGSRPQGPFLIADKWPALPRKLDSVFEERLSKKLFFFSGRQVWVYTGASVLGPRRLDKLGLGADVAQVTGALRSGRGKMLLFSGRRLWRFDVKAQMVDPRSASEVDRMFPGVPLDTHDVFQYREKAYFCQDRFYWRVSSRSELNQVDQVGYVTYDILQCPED

Regarding `C/C=C/c1ccc(OC)cc1` [ANETHOLE], the outcome in data set [1], in data set [3], in data set [4], in [5], in data set [7] and in data set [8] was Active. The result in data set [13], in data set [18], in data set [19] and in data set [20] was Active. In addition, the outcome in [2], in data set [6], in data set [9], in [10], in data set [12] and in [15] was inactive. Also, the result in data set [17] and in [22] was inactive. Also, the inhibition entry in [11] was “Dose-dependent effect”. In addition, the inhibition entry in [14] is “Active”. The Activity entry in data set [16] was “Dose-dependent effect”; in [21], “Non-toxic”.

The values above are taken from ChEMBL document CHEMBL3102743, “Regulation of crosstalk between epithelial to mesenchymal transition molecules and MMP-9 mediates the antimetastatic activity of anethole in DU145 prostate cancer cells” (J Nat Prod, 2014).
